We go through 18 compounds from patent US20200392150A1, “Diaryl-B-Lactam Compound and Preparation Method and Pharmaceutical Use Thereof” (Fudan University, priority 2016, published 2020).

Series [1] has as its system SKOV3. Kind of series: In vitro cell growth inhibition assay (MTT). Conditions: SK-OV-3; SKOV-3 human ovarian cancer cell line, 48 h, MTT; read-out: IC50 SKOV3. The class given is cell-based, human. The gist of the method:
(§1)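 SKOV3, A2780 or HeLa cells were seeded at 5000 per well, allowed to adhere overnight, then treated 48 h with compounds; 0.2% DMSO served as control. IC50 values came from growth inhibition rates.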

Series [2] relates to MDA-MB-231. Kind of series: In vitro cell growth inhibition assay (MTT). It is filed as cell-based, human. The conditions noted are these: MDA-MB-231 human breast cancer cell line, 48 h, MTT; read-out: IC50 MDA-MB-231. The gist of the method: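 5000 cells/well, overnight attachment; compounds 48 h (vehicle 0.2% DMSO); MTT 0.5 mg/mL, 4 h, 37° C; formazan in DMSO; A540. IC50 from growth inhibition rates.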

The test system of series [3] is A2780. Kind of series: In vitro cell growth inhibition assay (MTT). The class given is cell-based, human. Conditions: A2780 human ovarian cancer cell line, 48 h, MTT; read-out: IC50 A2780. The gist of the method: as §1
Series [4] relates to Hela. Kind of series: In vitro cell growth inhibition assay (MTT). It is filed as cell-based, human. Conditions: Hela human cervical cancer cell line, 48 h, MTT; read-out: IC50 Hela. The gist of the method: as §1

SMILES strings stand for the structures. Structures can show the parent of a compound that is named as a salt.

By melting point is commonly meant the temperature of the solid-liquid transition. Consider `C=C1C(=O)N(c2cc(OC)c(OC)c(OC)c2)[C@H]1c1ccc(OC)c(OS(=O)(=O)c2ccc(C)cc2)c1` (as salt: benzenesulfonate) [Compound 27, (S)-2-methoxy-5-(3-methylene-4-oxo-1-(3,4,5-trimethoxyphenyl)azetidin-2-yl)phenyl 4-methylbenzenesulfonate], for which the melting point fell in the range of 162 to 163 °C.
Still for that read-out and setting: as for `C=C1C(=O)N(c2cc(OC)c(OC)c(OC)c2)[C@H]1c1ccc(OC)c(OS(=O)(=O)c2ccc(NC(C)=O)cc2)c1` (as salt: benzenesulfonate) [Compound 30, (S)-2-methoxy-5-(3-methylene-4-oxo-1-(3,4,5-trimethoxyphenyl)azetidin-2-yl)phenyl 4-acetamidobenzenesulfonate], the figure is 87 to 88 °C; as for `C=C1C(=O)N(c2cc(OC)c(OC)c(OC)c2)[C@H]1c1ccc(OC)c(OS(=O)(=O)c2ccc(OC)c(OC)c2)c1` (as salt: benzenesulfonate) [Compound 33, (S)-2-methoxy-5-(3-methylene-4-oxo-1-(3,4,5-trimethoxyphenyl)azetidin-2-yl)phenyl 3,4-dimethoxybenzenesulfonate], 70 to 71 °C.
On to `C=C1C(=O)N(c2cc(OC)c(OC)c(OC)c2)[C@H]1c1ccc(OC)c(OS(=O)(=O)Cc2ccccc2)c1` (as salt: methanesulfonate) [Compound 32, (S)-2-methoxy-5-(3-methylene-4-oxo-1-(3,4,5-trimethoxyphenyl)azetidin-2-yl)phenyl phenylmethanesulfonate], for which the melting point was in the range of 58 to 59 °C.
For orientation: IC50 means the concentration that inhibits the measured activity by half. `C=C1C(=O)N(c2cc(OC)c(OC)c(OC)c2)[C@H]1c1ccc(OC)c(OC)c1` [Compound 2, (S)-4-(3,4-dimethoxyphenyl)-3-methylene-1-(3,4,5-trimethoxyphenyl)azetidin-2-one] had a melting point of 138 to 139 °C. In series [1], the IC50 was found to be 2260 nM. Further, in series [2], the concentration for half-maximal inhibition (IC50) was 1020 nM. In addition, in series [3], the IC50 is 854 nM. For the same compound, the IC50 in series [4] was determined as 3160 nM.
The corresponding values for `C=C1C(=O)N(c2cc(OC)c(OC)c(OC)c2)[C@H]1c1ccc(OC)c(OCC)c1` [Compound 3, (S)-4-(3-ethoxy-4-methoxyphenyl)-3-methylene-1-(3,4,5-trimethoxyphenyl)azetidin-2-one] are 92 to 93 °C, 1140 nM, 958 nM, 854 nM and 2030 nM.
For `C=C1C(=O)N(c2cc(OC)c(OC)c(OC)c2)[C@H]1c1ccc(OC)c(OCCC)c1` [Compound 4, (S)-4-(4-methoxy-3-propoxyphenyl)-3-methylene-1-(3,4,5-trimethoxyphenyl)azetidin-2-one] the same measures were 90 to 91 °C, 5260 nM, 5620 nM, 3420 nM and 6890 nM.
`C=C1C(=O)N(c2cc(OC)c(OC)c(OC)c2)[C@H]1c1ccc(OC)c(OC(=O)c2ccc(OC)cc2)c1` [Compound 96, (S)-2-methoxy-5-(3-methylene-4-oxo-1-(3,4,5-trimethoxyphenyl)azetidin-2-yl)phenyl 4-methoxybenzoate]: the IC50 worked out at 258 nM in series [1], 284 nM in series [2], 125 nM in series [3] and 139 nM in series [4].
The corresponding values for `C=C1C(=O)N(c2cc(OC)c(OC)c(OC)c2)[C@@H]1c1ccc(OC)c(O)c1` [Compound 98, (R)-4-(3-hydroxy-4-methoxyphenyl)-3-methylene-1-(3,4,5-trimethoxyphenyl)azetidin-2-one] are above 20000 nM, above 20000 nM, above 20000 nM and above 20000 nM.
The corresponding values for `COc1ccc([C@@H]2[C@H](C)C(=O)N2c2cc(OC)c(OC)c(OC)c2)cc1O` [Compound 101, (3S,4S)-4-(3-hydroxy-4-methoxyphenyl)-3-methyl-1-(3,4,5-trimethoxyphenyl)azetidin-2-one] are 3270 nM, 5140 nM, 5750 nM and 3920 nM.
Regarding `COc1ccc([C@@H]2[C@@H](C)C(=O)N2c2cc(OC)c(OC)c(OC)c2)cc1O` [Compound 102, (3R,4S)-4-(3-hydroxy-4-methoxyphenyl)-3-methyl-1-(3,4,5-trimethoxyphenyl)azetidin-2-one], the concentration for half-maximal inhibition (IC50) in series [1] was 650 nM; in series [2] it was 1080 nM; in series [3], 771 nM; in series [4] it was 807 nM.
The corresponding values for `COc1ccc([C@H]2[C@@H](C)C(=O)N2c2cc(OC)c(OC)c(OC)c2)cc1N` [Compound 103, (3R,4R)-4-(3-amino-4-methoxyphenyl)-3-methyl-1-(3,4,5-trimethoxyphenyl)azetidin-2-one] are 77 nM, 81 nM, 78 nM and 61 nM.
For `COc1ccc([C@H]2[C@H](C)C(=O)N2c2cc(OC)c(OC)c(OC)c2)cc1N` [Compound 104, (3S,4R)-4-(3-amino-4-methoxyphenyl)-3-methyl-1-(3,4,5-trimethoxyphenyl)azetidin-2-one] the same measures were 25 nM, 32 nM, 20 nM and 37 nM.
On to `COc1ccc([C@@H]2N(c3cc(OC)c(OC)c(OC)c3)C(=O)C23CC3)cc1O` [Compound 105, (S)-6-(3-hydroxy-4-methoxyphenyl)-5-(3,4,5-trimethoxyphenyl)-5-azaspiro[2.3]hexan-4-one], for which the IC50 in series [1] was 388 nM; in series [2], 326 nM; in series [3], 302 nM; in series [4] it was 436 nM.
Turning to `CC[C@H]1C(=O)N(c2cc(OC)c(OC)c(OC)c2)[C@H]1c1ccc(OC)c(O)c1` [Compound 106, (3R,4R)-3-ethyl-4-(3-hydroxy-4-methoxyphenyl)-1-(3,4,5-trimethoxyphenyl)azetidin-2-one], the IC50 came out at 215 nM in series [1], 286 nM in series [2], 250 nM in series [3] and 320 nM in series [4].
`C=C1C(=O)N(c2cc(OC)c(OC)c(OC)c2)[C@H]1c1ccc(OC)c(OS(=O)(=O)F)c1` [Compound 107, (S)-2-methoxy-5-(3-methylene-4-oxo-1-(3,4,5-trimethoxyphenyl)azetidin-2-yl)phenyl sulfofluoridate]: the half-maximal inhibitory concentration (IC50) came out at 178 nM in series [1], 216 nM in series [2], 121 nM in series [3] and 174 nM in series [4].
Regarding `COc1ccc([C@H]2[C@@H](C)C(=O)N2c2cc(OC)c(OC)c(OC)c2)cc1OS(=O)(=O)F` [Compound 108, 2-methoxy-5-((2R,3R)-3-methyl-4-oxo-1-(3,4,5-trimethoxyphenyl)azetidin-2-yl)phenyl sulfofluoridate], the IC50 was determined as 62 nM in series [1], 40 nM in series [2], 35 nM in series [3] and 54 nM in series [4].
The corresponding values for `COc1ccc([C@H]2[C@H](C)C(=O)N2c2cc(OC)c(OC)c(OC)c2)cc1OS(=O)(=O)F` [Compound 109, 2-methoxy-5-((2R,3S)-3-methyl-4-oxo-1-(3,4,5-trimethoxyphenyl)azetidin-2-yl)phenyl sulfofluoridate] are 34 nM, 23 nM, 21 nM and 51 nM.
